Assay results reported in publication PMC6211260 (Journal of Enzyme Inhibition and Medicinal Chemistry, 2018).

Key:
Format in all cases: cell-based
[1] = tested on: ovarian cancer cell lines; assay: NCI five-dose testing, subpanel mean; conditions: subpanel VI: ovarian cancer
Method: (§1) Screening against the cancer cell lines was carried out at the National Cancer Institute (NCI, Bethesda, Maryland, USA) applying the standard protocol of the NCI[22].

breast cancer cell lines = assay: NCI five-dose testing, subpanel mean; conditions: subpanel IX: breast cancer
Method: as §1

[2] = tested on: prostate cancer cell lines; assay: NCI five-dose testing, subpanel mean; conditions: subpanel VIII: prostate cancer
Method: as §1

renal cancer cell lines = assay: NCI five-dose testing, subpanel mean; conditions: subpanel VII: renal cancer
Method: as §1

melanoma cell lines = assay: NCI five-dose testing, subpanel mean; conditions: subpanel V: melanoma
Method: as §1

colon cancer cell lines = assay: NCI five-dose testing, subpanel mean; conditions: subpanel III: colon cancer
Method: as §1

[3] = tested on: non-small cell lung cancer cell lines; assay: NCI five-dose testing, subpanel mean; conditions: subpanel II: non-small cell lung cancer
Method: as §1

Leukaemia cell lines = assay: NCI five-dose testing, subpanel mean; conditions: subpanel I: Leukaemia
Method: as §1

CNS cancer cell lines = assay: NCI five-dose testing, subpanel mean; conditions: subpanel IV: CNS cancer
Method: as §1

[4] = tested on: K-562 leukaemia cell line; assay: NCI five-dose testing; conditions: for CC50: K562, read-out: LD50 (lethal dose 50); for IC50 / IC (TGI): K-562; for IC (TGI): read-out: TGI (total growth inhibition concentration)
Method: as §1

[5] = tested on: A498 renal cancer cell line; assay: NCI five-dose testing; conditions: Homo sapiens; for IC50 / IC (TGI): A498; for LC50 (lethal concentration 50%): A498, read-out: LD50 (lethal dose 50); for IC (TGI): read-out: TGI (total growth inhibition concentration)
Method: as §1

[6] = tested on: HT-29 colon cancer cell line; assay: NCI five-dose testing; conditions: Homo sapiens; for CC50: HT-29, read-out: LD50 (lethal dose 50); for IC50 / IC (TGI): HT-29; for IC50: read-out: IC50; for IC (TGI): read-out: TGI (total growth inhibition concentration)
Method: as §1

[7] = tested on: MDA-MB-468 breast cancer cell line; assay: NCI five-dose testing; conditions: Homo sapiens; for IC50 / IC (TGI): MDA-MB-468; for CC50: MDA-MB-468, read-out: LD50 (lethal dose 50); for IC (TGI): read-out: TGI (total growth inhibition concentration)
Method: as §1

[8] = tested on: PC-3 prostate cancer cell line; assay: NCI five-dose testing; conditions: Homo sapiens; for LC50 (lethal concentration 50): PC-3, read-out: LD50 (lethal dose 50); for IC50 / IC (TGI): PC-3; for IC50: read-out: IC50; for IC (TGI): read-out: TGI (total growth inhibition concentration)
Method: as §1

[9] = tested on: U251 CNS cancer cell line; assay: NCI five-dose testing; conditions: Homo sapiens; for CC50: U-251, read-out: LD50 (lethal dose 50); for IC50 / IC (TGI): U-251, U251; for IC50: read-out: IC50; for IC (TGI): read-out: TGI (total growth inhibition concentration)
Method: as §1

[10] = tested on: OVCAR-4 ovarian cancer cell line; assay: NCI five-dose testing; conditions: Homo sapiens; for IC50 / IC (TGI): OVCAR-4; for LC50 (lethal concentration 50): OVCAR-4, read-out: LD50 (lethal dose 50); for IC (TGI): read-out: TGI (total growth inhibition concentration)
Method: as §1

[11] = tested on: HOP-92 non-small cell lung cancer cell line; assay: NCI five-dose testing; conditions: Homo sapiens; for IC50: HOP-92; for IC (TGI): HOP-92, HOP-92, read-out: TGI (total growth inhibition concentration); for LD50 (lethal dose 50): HOP-92, read-out: LD50 (lethal dose 50)
Method: as §1

[12] = tested on: SK-MEL-5 melanoma cell line; assay: NCI five-dose testing; conditions: Homo sapiens; for IC50 / IC (TGI): SK-MEL-5; for LC50 (lethal concentration 50): SK-MEL-5, read-out: LD50 (lethal dose 50); for IC (TGI): read-out: TGI (total growth inhibition concentration)
Method: as §1

Compound	IC50 [1] [nM]	IC50 (breast cancer cell lines) [nM]	IC50 [2] [nM]	IC50 (renal cancer cell lines) [nM]	IC50 (melanoma cell lines) [nM]	IC50 (colon cancer cell lines) [nM]	IC50 [3] [nM]	IC50 (Leukaemia cell lines) [nM]	IC50 (CNS cancer cell lines) [nM]	CC50 ([4]; Homo sapiens) [nM]	IC50 ([4]; Homo sapiens, K562) [nM]	IC (TGI) ([4]; Homo sapiens, K562) [nM]	IC50 [5] [nM]	LC50 (lethal concentration 50%) [5] [nM]	IC (TGI) [5] [nM]	CC50 [6] [nM]	IC50 [6] [nM]	IC (TGI) [6] [nM]	IC50 [7] [nM]	CC50 [7] [nM]	other results
O=S(=O)(NCCCNc1cc(-c2cn(-c3ccccc3)nc2-c2cccc(O)c2)ccn1)c1cccc2ccccc12 [Compound 2q, N-(3-((4-(3-(3-Hydroxyphenyl)-1-phenyl-1H-pyrazol-4-yl)pyridin-2-yl)amino)propyl) naphthalene-1-sulfonamide]	5280	1950	3440	2990	2270	2620	3050	1960	2330	> 100000	920	4400	1100	> 100000	6600	4500	1230	1700	1800	> 100000	IC (TGI) [7]: 6000 nM; LC50 (lethal concentration 50) [8]: > 100000 nM; IC50 [8]: 1930 nM; IC (TGI) [8]: 44900 nM; CC50 [9]: 41300 nM; IC50 [9]: 1280 nM; IC (TGI) [9]: 13200 nM; IC50 [10]: 1920 nM; LC50 (lethal concentration 50) [10]: > 100000 nM; IC (TGI) [10]: > 100000 nM; IC50 [11]: 1560 nM; IC (TGI) [11]: 7200 nM; LD50 (lethal dose 50) [11]: > 100 µM; IC50 [12]: 1530 nM; LC50 (lethal concentration 50) [12]: 7400 nM; IC (TGI) [12]: 3400 nM
O=S(=O)(NCCCNc1cc(-c2cn(-c3ccccc3)nc2-c2cccc(O)c2)ccn1)c1ccc(C(F)(F)F)cc1 [Compound 2o, N-(3-((4-(3-(3-Hydroxyphenyl)-1-phenyl-1H-pyrazol-4-yl)pyridin-2-yl)amino)propyl)-4-(trifluoromethyl)benzenesulfonamide]	2320	1870	2790	2030	1720	1640	2120	1900	1710	> 100000	610	5300	1090	6300	2600	8100	500	3100	1850	> 100000	IC50 [4]: 617 nM; IC (TGI) [7]: 5500 nM; LC50 (lethal concentration 50) [8]: 18900 nM; IC50 [8]: 2870 nM; IC (TGI) [8]: 4500 nM; CC50 [9]: 8100 nM; IC50 [9]: 1780 nM; IC (TGI) [9]: 3200 nM; IC50 [10]: 3060 nM; LC50 (lethal concentration 50) [10]: > 100000 nM; IC (TGI) [10]: 5100 nM; IC50 [11]: 1410 nM; IC (TGI) [11]: 3600 nM; LD50 (lethal dose 50) [11]: 9.7 µM; IC50 [12]: 1570 nM; LC50 (lethal concentration 50) [12]: 5600 nM; IC (TGI) [12]: 2900 nM
